Measurements taken from paper PMC3809102 (Current cancer drug targets, 2010).

Experiments:
Ku70 = Ku70 (Homo sapiens, UniProt P12956); test: surface plasmon resonance; format: binding
SIRT1 = target: T1, SIRT1 (Homo sapiens, UniProt Q96EB6); test: cell-free SIRT1 FRET-based screening assay; format: biochemical
T1 sequence (Q96EB6 2-747): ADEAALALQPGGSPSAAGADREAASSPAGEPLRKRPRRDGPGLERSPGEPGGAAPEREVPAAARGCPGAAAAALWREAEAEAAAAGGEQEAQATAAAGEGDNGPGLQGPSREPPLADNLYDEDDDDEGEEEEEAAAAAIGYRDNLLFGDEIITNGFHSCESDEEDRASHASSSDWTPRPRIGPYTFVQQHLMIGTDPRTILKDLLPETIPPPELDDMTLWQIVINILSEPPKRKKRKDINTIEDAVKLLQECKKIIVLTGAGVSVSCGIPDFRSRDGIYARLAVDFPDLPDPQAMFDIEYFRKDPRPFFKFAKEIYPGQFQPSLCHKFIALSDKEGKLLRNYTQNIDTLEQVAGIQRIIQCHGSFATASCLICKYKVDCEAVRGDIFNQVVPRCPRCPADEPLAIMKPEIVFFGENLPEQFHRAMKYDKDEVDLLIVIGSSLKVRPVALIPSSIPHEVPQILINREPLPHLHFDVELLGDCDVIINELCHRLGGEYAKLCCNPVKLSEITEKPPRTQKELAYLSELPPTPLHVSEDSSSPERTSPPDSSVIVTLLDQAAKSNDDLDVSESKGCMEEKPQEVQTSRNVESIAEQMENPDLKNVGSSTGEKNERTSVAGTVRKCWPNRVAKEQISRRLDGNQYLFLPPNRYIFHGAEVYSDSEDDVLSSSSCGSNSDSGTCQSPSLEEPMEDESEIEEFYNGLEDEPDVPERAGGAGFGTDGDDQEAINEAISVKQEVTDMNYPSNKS

Chain of Ku70 (P12956 2-609): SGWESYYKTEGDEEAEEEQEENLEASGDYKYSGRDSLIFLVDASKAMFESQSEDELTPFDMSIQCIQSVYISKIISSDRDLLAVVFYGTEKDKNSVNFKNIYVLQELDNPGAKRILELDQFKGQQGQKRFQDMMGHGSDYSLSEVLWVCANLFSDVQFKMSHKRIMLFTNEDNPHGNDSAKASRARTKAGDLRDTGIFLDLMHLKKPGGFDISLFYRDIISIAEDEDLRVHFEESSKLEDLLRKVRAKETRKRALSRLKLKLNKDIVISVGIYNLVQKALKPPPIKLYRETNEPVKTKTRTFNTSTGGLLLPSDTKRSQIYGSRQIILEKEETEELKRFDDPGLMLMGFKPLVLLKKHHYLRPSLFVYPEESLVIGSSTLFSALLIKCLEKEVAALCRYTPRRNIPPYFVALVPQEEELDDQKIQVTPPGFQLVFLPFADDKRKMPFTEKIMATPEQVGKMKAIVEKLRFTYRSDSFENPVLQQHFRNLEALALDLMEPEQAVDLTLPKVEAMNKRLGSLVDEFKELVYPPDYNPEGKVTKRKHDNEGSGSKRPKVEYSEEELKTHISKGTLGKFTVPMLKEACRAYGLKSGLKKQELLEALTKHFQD

Compound | Kd (Ku70) | cell-free SIRT1 FRET-based screening assay (Cayman kit), 15 μM (SIRT1)
COc1ccc(C2=NC(c3ccc(Cl)cc3)C(c3ccc(Cl)cc3)N2C(=O)N2CCNC(=O)C2)c(OC(C)C)c1 (racemic) [Nutlin-3, (±)-4-[4,5-Bis(4-chlorophenyl)-2-(2-isopropoxy-4-methoxy-phenyl)-4,5-dihydro-imidazole-1-carbonyl]-piperazin-2-one] | 169 µM | MI-219, MI-319 and Nutlin-3 significantly suppressed SIRT1 activity while the inactive analog MI-10 did not
MI-319 | 0.17 µM | 
